Measurements as given in publication PMC11438743, “High-dose colistin pharmacokinetics in critically ill patients receiving continuous renal replacement therapy” (Annals of Intensive Care, 2024).
Read-outs that look alike come from different tables or passages of the source.

Experiments:
[1] = cited from earlier work
Procedure: Several variables may influence colistin plasma concentration as demographic (e.g. body mass), clinical (e.g. kidney function) and therapeutic (e.g. RRT modality, membrane, mode and dose) variables. In order to account for CRRT removal of colistin, the 2019 international guidelines for the optimal use of polymyxins recommend administering a daily dose of 440 colistin base activity (CBA), corresponding to ≈ 13,3 MIU or ≈ 1173 mg of CMS in patients who are exposed to this extracorporeal organ support. […] The authors, documenting a 62% ClCVVHDF, formulated a pharmacokinetic model where a LD of 12 MIU followed by a maintenance dosage of 6.75–7.5 MIU q12 would be needed to achieve a target Css, avg of 2–3 mcg/mL [31]. […] Further, in the latest and largest investigation on this topic, ten critically ill patients requiring CRRT and receiving CMS 3 MIU q8 were prospectively studied.

[2] = test system: Acinetobacter spp.; test: Colistin MIC of BAL isolates (Micronaut AST BMD, VITEK 2 AST-N397, EUCAST v11.0); format: cell-based; details: BAL Acinetobacter spp. isolates of 20 patients; median [interquartile range]
Procedure: Bacterial isolates were identified by using matrix-assisted laser desorption ionization-time of flight mass spectrometry (MALDI-TOF MS). MICs were determined by a Micronaut AST system-based BMD, VITEK 2 AST-N397 card, according to the manufacturer’s instructions. EUCAST (version 11.0, 2021) clinical breakpoints were used to interpret MICs. In pneumonia episodes, microbiological evidence of bacterial infection was achieved by processing respiratory samples both for conventional and fast-microbiology panel testing. […] Semiquantitative culture results were obtained using calibrated loops to inoculate and streak samples on both selective/differential.

[3] = plasmatic absorption after aerosolization of either 3 MIU and 5 MIU CMS; cited from earlier work
From the text: In our study, all patients underwent CVVHDF with a similar daily dose and since this technique uses diffusion across a concentration gradient (e.g. hemodialysis) in addition to hemofiltration across a pressure gradient, the equivalences of the two modes with respect to CMS/colistin clearance are unknown. Additionally none of our patients had residual renal function and almost all were also receiving high dose nebulized CMS (5 MIU q8), delivered through vibrating mesh nebulizers, potentially contributing to the higher than expected steady-state colistin levels. In our study we cannot asc ...

[4] = Colistin plasma pharmacokinetics at steady state in critically ill patients undergoing CRRT (CVVHDF); format: in vivo, human; details: median [IQR]
Procedure: According to current guidelines, CMS high dosage (HD) was administered intravenously (IV) at loading dose (LD) of 9 MIU […] over 30-min, followed by 6.75 MIU over 30-min q12. On day 4, at steady state, pharmacokinetic analyses of the study group were performed. CRRT was delivered as continuous veno-venous hemodiafiltration (CVVHDF) with Prismaflex ST150 (Gambro AB, Lund, Sweden) using the AN69 ST membrane (acrylonitrile-sodium-methyl sulfonate surface treated; surface area, 1.5m2) and regional citrate anticoagulation. Dose intensity was prescribed according to current guidelines, and with a ratio of dialysate to replacement fluid of 1:1. The CRRT circuit and membrane were changed every 72 h, as standard operating procedure in our center.
Although colistin concentration-time profiles are stable just on day 3, blood samples were collected after the seventh dose (on day 4 of treatment) at T0 (immediately before the initiation of CMS infusion) and 1 h, 2 h, 4 h, 6 h, 8 h, 10 h and 12 h from the start of CMS infusion. First order kinetic determined pharmacokinetic parameters; maximum and minimum concentrations (Cmax, Cmin) were directly obtained from observed peak and trough concentrations. The 0–12 h area under the time–concentration curve (AUC0–12 ) was determined by the linear trapezoidal rule. Colistin AUC0–24 was calculated as AUC0–12 × 2. The average steady-state plasma concentration (Css, avg) was obtained from the ratio of colistin AUC 0–24 above T (i.e. the dosage interval). In all patients, distribution volume (Vd), drug clearance (CL), and elimination half-life (t1/2 ) were calculated after a single 6.75 MIU intravenous dose at steady state. According to current guidelines, the recommended PK/PD therapeutic target has been considered the area under the plasma concentration- time curve across 24 h at steady state above MIC (fAUCss 0−24 hr) of ~ […], that equates to a target Css, avgof ~ 2 mg/L of the total drug against susceptible strains (MIC ≤ 2 mcg/mL). […] Colistin and CMS concentration were measured using and modifying the Gobin assay.

[5] = test system: CR-Acinetobacter baumannii ventilator associated pneumonia (VAP); test: Clinical outcome of patients treated with high-dose intravenous colistimethate; format: in vivo, human; details: 20 patients, IV CMS 9 MIU LD then 6.75 MIU q12 in combination therapy, no control group
[6] = in vivo, iv
Procedure: Clinical and demographic data were recorded upon enrolment. […] Renal recovery was defined as a reduction in peak AKI-KDIGO stage [21] and was evaluated in patients without chronic kidney disease.

[7] = eight critically ill patients receiving CRRT, CMS 4.5 MIU q12
[8] = five patients on CRRT, CMS until 2 MIU q8
[9] = ten critically ill patients requiring CRRT, CMS 3 MIU q8
[10] = colistin, 20 patients on CVVHDF (AN69 ST membrane), steady state

Which ClCVVHDF [1, 7] does the source give for `CC[C@H](C)CCCCC(=O)N[C@@H](CCN)C(=O)N[C@H](C(=O)N[C@@H](CCN)C(=O)N[C@H]1CCNC(=O)[C@H]([C@@H](C)O)NC(=O)[C@H](CCN)NC(=O)[C@H](CCN)NC(=O)[C@H](CC(C)C)NC(=O)[C@@H](CC(C)C)NC(=O)[C@H](CCN)NC1=O)[C@@H](C)O` (mixture of isomers) [Colistin, Colistin (polymixin E)] here?
The ClCVVHDF was 62%.

And the “median Cmax” value [1, 7]?
The value was 1.72 mg/L.

What about the CLHDF [1, 8] of the same molecule?
Its CLHDF is “above 4 L/h”.

What about the “Css, avg” value [1, 8] of the same molecule?
The value was at most 1 µg/mL.

And the membrane extraction ratio [1, 8]?
Its membrane extraction ratio is 68%.

And the steady-state concentrations ([1]; high CMS daily administration schedules during CRRT, especially with residual renal function and prolonged course)?
The steady-state concentrations was “above 10 mcg/mL”.

What about the AUC0-24 [1, 9] of the same molecule?
The AUC0-24 was 569 [404–741] mcg h/mL.

What about the “CRRT clearance as share of total clearance” value [1, 9] of the same molecule?
Its value is 28%.

What about the “Css, avg” value [1, 9] of the same molecule?
Its value is 4.43 [3.01–7.24] mcg/mL.

What about the effluent clearance share ([1]; three patients on CRRT) of the same molecule?
The effluent clearance share was “about 40%”.

And the MIC [2]?
The MIC was 1[1-1.5] mcg/mL.

And the “colistin concentrations after aerosolization” value [3]?
Its value is under 1 µg/mL.

And the “%E (% filter extraction)” value [4, 10]?
Its value is 17.65 [14.98–21.67] %.

And the CLCRRT [4, 10]?
Its CLCRRT is 1.21 [0.88–1.35] L/h.

What about the Vd ([4]; human, plasma, colistin, 20 patients on CVVHDF, after a single 6.75 MIU IV CMS dose at steady state) of the same molecule?
Its Vd is 126 L.

What about the half-life ([4]; human, plasma, colistin, 20 patients on CVVHDF, after a single 6.75 MIU IV CMS dose at steady state, one-compartment, first order) of the same molecule?
The half-life was 1250 min.

What about the clearance ([4]; human, plasma, colistin, 20 patients on CVVHDF, after the seventh 6.75 MIU IV CMS dose at steady state, read-out: CLTOT (converted)) of the same molecule?
The clearance was 34.7 mL/min.

And the Cmax ([4]; human, plasma colistin, 20 critically ill anuric patients on CVVHDF (AN69 ST, 32.5 mL/kg/h), IV CMS 9 MIU LD then 6.75 MIU q12, after seventh dose (day 4, steady state), observed peak, modified Gobin assay)?
The Cmax was 16600 ng/mL.

And the AUC(0-t) ([4]; human, plasma colistin, 20 patients on CVVHDF, IV CMS 6.75 MIU q12 after 9 MIU LD, day 4, AUC0-12 (linear trapezoidal) x 2, read-out: AUC0-24)?
Its AUC(0-t) is 194 µg·h/mL.

What about the level at 96 h ([4]; human, plasma colistin, 20 patients on CVVHDF, IV CMS 9 MIU LD then 6.75 MIU q12, after seventh dose (day 4), observed trough, read-out: Cmin) of the same molecule?
The level at 96 h was 3930 ng/mL.

And the “Css, avg (average steady-state concentration)” value ([4]; plasma colistin, 20 patients on CVVHDF, IV CMS 9 MIU LD then 6.75 MIU q12, day 4, AUC0-24 over dosage interval)?
The value was 8.07 [7.1–8.69] mcg/mL.

What about the “Css, avg in patients who recovered renal function” value ([4]; plasma colistin, subgroup with renal recovery, p = 0.026 vs no renal recovery) of the same molecule?
Its value is 7.48 [6.35, 8.05] mcg/mL.

And the “Css, avg in patients that had no renal recovery” value ([4]; plasma colistin, subgroup without renal recovery, p = 0.026 vs renal recovery)?
The value was 8.31 [7.35, 9.13] mcg/mL.

What about the fAUC0-24 ([4]; unbound colistin, unbound fraction derived from literature, 20 patients on CVVHDF, IV CMS 6.75 MIU q12, day 4) of the same molecule?
The fAUC0-24 was 58.16 [51.18–62.6] mcg h/mL.

For colistimethate [CMS], which “CRRT clearance as share of total clearance” value ([1]; human, in vivo) is on record?
Its value is 41%.

And the “median Cmax” value ([1]; human, in vivo)?
Its value is 12.6 mg/L.

What about the “risk to overcome the safety limit of Css, avg ≥ 4 mcg/mL” value ([1]; human, in vivo) of the same molecule?
Its value is “less than 30%”.

And the “target attainment rate (Css, avg ≥ 2 mcg/mL)” value ([1]; human, in vivo)?
Its value is 80%.

What about the “Death in ICU” value ([5]; 18 with nebulized CMS) of the same molecule?
The value was 15 (75) count (percentage).

What about the Treatment failure [5] of the same molecule?
The Treatment failure was 14 (70) count (percentage).

And the “Renal Recovery” value [6]?
The value was 6 (37.5) count (percentage).
